The values below come from patent US12102631B2, “Quinolylnitrones for the treatment and prevention of a cerebral stroke or ischaemia” (ISQUAEMIA BIOTECH, S.L., priority 2018, dated 2024).

A value given as a limit tells only on which side of the number the result lay.

A short description of assay [1]: Superoxide radical scavenging (hypoxanthine/xanthine oxidase system). The assay is classed as biochemical. The note with it: tested at 100 μM (0.1 mM). An excerpt:
3.7. Superoxide radical scavenging activity. Superoxide anion radical (O2⋅−) is less toxic than hydroxyl radical, but still one of the most known harmful toxic ROS. In physiological conditions, superoxide dismutase catalyzes its conversion to H2O2, which is the precursor for the formation of hydroxyl radicals in the presence of iron ions.43 Superoxide anion radicals O2⋅− and H2O2 are ROS produced in vivo through a one-electron reduction process of O2. The evaluation of superoxide anion radical scavenging activity can be determined using assays involving non-enzymatic or enzymatic production of superoxide anions. In this assay, superoxide anion radicals were generated by a hypoxanthine and xanthine oxidase reaction system, and the O2⋅− scavenging activity (%) has been measured spectrophotometrically.

For assay [2], the system named is primary neuronal cultures from rat cerebral cortex. As to the kind of experiment: Neuroprotection (MTT cell viability) in primary neuronal cultures exposed to oxygen-glucose deprivation (OGD). The assay is classed as cell-based. The note with it: 24 h recovery after 4 h OGD, R24 h = 0%, control = 100%. Here is the method: Primary neuronal cultures. Primary neuronal cultures from rat cerebral cortex were prepared as previously described.^54 All procedures associated with animal experiments were approved by the Ethics Committee of the Hospital Ramón y Cajal, Madrid (Spain). Cell suspensions from cerebral cortex were prepared from 16- to 17-day-old Sprague-Dawley rat embryos. Living cells in cell suspension were counted by trypan blue exclusion method. Cells were seeded on plastic multidishes precoated with 0.05 mg/mL poly-D-lysine at a density of 2.5×10^5 cells/cm^2 and were kept at 37° C. in a 6.5% CO2 atmosphere in high glucose Dulbecco's medium supplemented with 15% heat-inactivated (56° C. for 30 min) foetal calf serum. After 24 h, cultured cells were […] to induce experimental ischemia.^23 Cultured cells were washed and placed in glucose-free Dulbecco's medium (bubbled with 95% N2/5% CO2 for 30 min), and maintained in a humidified hypoxia chamber equipped with an oxygen and carbon dioxide control unit (Biospherix) at 6.5% CO2 and <0.1% O2 in N2 at 37° C. Cells were exposed to OGD for a period of 4 h (OGD 4 h). At the end of the OGD period, culture medium was replaced with oxygenated serum-free medium, and cells were placed and maintained in the normoxic incubator for 24 h to recovery (R24 h). In the neuroprotection experiments, the compounds were added at the onset of recovery period. Control cultures in Dulbecco's medium containing glucose were kept in the normoxic incubator for the same period of time as the OGD, and then medium (Dulbecco's/Ham's F12, 1:1 [vol/vol], 5 mg/mL glucose, 2 mM L-glutamine, and 1 mM sodium pyruvate, and supplemented with 100 μg/mL transferrin, 100 μM putrescine, 20 nM progesterone, 30 nM sodium selenite and 5 μg/mL insulin). Here, 6-7 day old cultured neurons were used in the experiments, and contained 90% β-III-tubulin-positive mature neurons, as described previously.^55
Exposure of cell cultures to oxygen-glucose deprivation and treatments. Primary neuronal cultures were exposed to […]. Control experiments included the same amounts of vehicle (final concentration<0.5% ethanol). Nitrone 2 was used as reference compound for neuroprotection. The experimental procedures were blindly performed, assigning a random order to each assayed nitrone. Nitrones were analyzed independently four-eight times with different batch of cultures and each experiment was run in quadruplicate.
Cell viability assay. Cell viability was evaluated by quantification of living, metabolically active cells, as determined by a colorimetric assay using the photometric reduction of 3-(4,5-dimethylthiazol-2-yl)-2,5-diphenyl tetrazolium bromide (MTT) (Roche) to a blue formazan product. The assay of living, metabolically active cells was performed by incubating with 0.2 mg/mL MTT in the culture medium for 1.5 h in an incubator at 37° C. in a 6.5% CO2 atm. After the incubation period, cells were lysed with an equal volume of 10 mM HCl and 10% SDS overnight. Values were quantified by absorbance (test 595 nm, reference 690 nm). Decreased MTT activity denotes impairment of mitochondrial function and is considered to be an index of cell damage. Primary neuronal cultures were collected at times indicated for MTT determination.
Neuroprotection of compounds was evaluated by a cell viability assay. The neuroprotective effect of the compounds 5-32 was evaluated on primary neuronal cultures from cerebral cortex subjected to oxygen-glucose deprivation (OGD) to induce experimental ischemia. Afterwards, cultured neurons were placed and kept in normoxic and normoglycemic conditions to recovery. […]

As for `O=C(O)/C=C/c1ccc(O)c(O)c1` [Caffeic acid, caffeic acid, reference compound], the “O2*− (%)” value in assay [1] is 15%.

For orientation: viability means the share of living cells, or the viability signal relative to a control. High values mean less harm to the cells, low ones more harm to the cells. Compound `Cc1ccc2nc(Cl)c(/C=[N+](\[O-])Cc3ccccc3)cc2c1` [Compound 4, (Z)—N-benzyl-1-(2-chloro-6-methylquinolin-3-yl)methanimine oxide, reference compound] had a viability at 10 µM in assay [2] (Rattus norvegicus, 10 μM) of 55.4 ± 1.74%. For the same compound, in assay [2] (Rattus norvegicus, 50 μM), the viability at 50 µM turned out to be 56.8 ± 2.57%.

In the case of `Cc1ccc2nc(Cl)c(C=NO)cc2c1` [Compound 6], the “Neuroprotection (%)” value in assay [2] (0.5 μM) is on record as 8.30 ± 0.62%; in assay [2] (1 μM), 11.28 ± 1.32%; in assay [2] (10 μM), below 0%; in assay [2] (100 μM), below 0%.

Regarding `Cc1ccc2nc(Cl)c(/C=[N+](\[O-])c3ccccc3)cc2c1` [Compound 11, (Z)-1-(2-Chloro-6-methylquinolin-3-yl)-N-phenylmethanimine oxide], the viability at 1 µM in assay [2] (Rattus norvegicus, 1 μM) was 21.1 ± 0.31%. Moreover, the viability at 10 µM in assay [2] (Rattus norvegicus, 10 μM) came to 36.5 ± 1%. Also, in assay [2] (Rattus norvegicus, 100 μM), the viability at 100 µM is below 0%. The viability at 250 µM in assay [2] (Rattus norvegicus) was 1 ± 0.07%.

Compound `Cc1ccc2ncc(/C=[N+](\[O-])Cc3ccccc3)cc2c1` [Compound 12, (Z)—N-Benzyl-1-(6-methylquinolin-3-yl)methanimine oxide] displayed a viability at 1 µM in assay [2] (Rattus norvegicus, 1 μM) of 37 ± 0.05%. For the same compound, the viability at 10 µM in assay [2] (Rattus norvegicus, 10 μM) came out at 37.7 ± 0.66%. The viability at 100 µM in assay [2] (Rattus norvegicus, 100 μM) came out at 34.4 ± 0.67%. The same compound came in with a viability at 250 µM in assay [2] (Rattus norvegicus) of 34.11 ± 0.15%.

As to `Cc1ccc2[nH]c(=O)c(/C=[N+](\[O-])Cc3ccccc3)cc2c1` [Compound 13, (Z)—N-Benzyl-1-(6-methyl-2-oxo-1,2-dihydroquinolin-3-yl)methanimine oxide], the viability at 10 µM in assay [2] (Rattus norvegicus, 10 μM) came to 35.9 ± 1.46%. Besides, in assay [2] (Rattus norvegicus, 100 μM), the viability at 100 µM was determined as 42 ± 1.86%. In assay [2] (Rattus norvegicus), this compound yielded a viability at 250 µM of 29.8 ± 1.25%.

`COc1nc2ccc(C)cc2cc1/C=[N+](\[O-])Cc1ccccc1` [Compound 14, (Z)—N-Benzyl-1-(2-methoxy-6-methylquinolin-3-yl)methanimine oxide] returned a viability at 1 µM in assay [2] (Rattus norvegicus, 1 μM) of 17.6 ± 1.11%. The same compound had a viability at 10 µM in assay [2] (Rattus norvegicus, 10 μM) of 23.7 ± 1.77%. The viability at 100 µM in assay [2] (Rattus norvegicus, 100 μM) is below 0%.

`CNc1nc2ccc(C)cc2cc1/C=[N+](\[O-])Cc1ccccc1` [Compound 15, (Z)—N-Benzyl-1-(6-methyl-2-(methylamino)quinolin-3-yl)methanimine oxide] had a viability at 1 µM in assay [2] (Rattus norvegicus, 1 μM) of 8.5 ± 0.18%. Also, the viability at 5 µM in assay [2] (Rattus norvegicus, 5 μM) came to 1.57 ± 0.03%. Further, the viability at 10 µM in assay [2] (Rattus norvegicus, 10 μM) is below 0%.

For the compound `Cc1ccc2nc(N(C)C)c(/C=[N+](\[O-])Cc3ccccc3)cc2c1` [Compound 16, (Z)—N-Benzyl-1-(2-(dimethylamino)-6-methylquinolin-3-yl)methanimine oxide], the viability at 1 µM in assay [2] (Rattus norvegicus, 1 μM) turned out to be 12.9 ± 0.34%. Further, the viability at 10 µM in assay [2] (Rattus norvegicus, 10 μM) was 34.3 ± 0.59%. The compound also displayed a viability at 100 µM in assay [2] (Rattus norvegicus, 100 μM) below 0%. Further, the viability at 250 µM in assay [2] (Rattus norvegicus) is below 0%.

For `Cc1ccc2[nH]c(=O)c(/C=[N+](\[O-])C(C)(C)C)cc2c1` [Compound 17, (Z)—N-tert-Butyl-1-(6-methyl-2-oxo-1,2-dihydroquinolin-3-yl)methanimine oxide], the viability at 10 µM in assay [2] (Rattus norvegicus, 10 μM) turned out to be 20.2 ± 1.1%. In assay [2] (Rattus norvegicus, 100 μM), this compound came in with a viability at 100 µM of 17.6 ± 1.35%. In assay [2] (Rattus norvegicus), the viability at 250 µM was 10.9 ± 0.88%.

`[O-]/[N+](=C\c1cc2ccccc2nc1Cl)Cc1ccccc1` [Compound 20, (Z)—N-Benzyl-1-(2-chloroquinolin-3-yl)methanimine oxide] had a viability at 1 µM in assay [2] (Rattus norvegicus, 1 μM) of 32.8 ± 2.72%. In assay [2] (Rattus norvegicus, 10 μM), this compound came in with a viability at 10 µM below 0%. Also, the viability at 100 µM in assay [2] (Rattus norvegicus, 100 μM) is below 0%.

In the case of `COc1nc2ccccc2cc1/C=[N+](\[O-])Cc1ccccc1` [Compound 21, (Z)—N-Benzyl-1-(2-methoxyquinolin-3-yl)methanimine oxide], the viability at 1 µM in assay [2] (Rattus norvegicus, 1 μM) was below 0%. For the same compound, the viability at 10 µM in assay [2] (Rattus norvegicus, 10 μM) came out at 24.2 ± 0.36%. The viability at 100 µM in assay [2] (Rattus norvegicus, 100 μM) is below 0%.

`[O-]/[N+](=C\c1cc2cc(O)ccc2nc1Cl)Cc1ccccc1` [Compound 25, (Z)—N-Benzyl-1-(2-chloro-6-hydroxyquinolin-3-yl)methanimine oxide] registered a viability at 1 µM in assay [2] (Rattus norvegicus, 1 μM) of 25.15 ± 0.14%. In assay [2] (Rattus norvegicus, 10 μM), this compound registered a viability at 10 µM below 0%. Besides, the viability at 100 µM in assay [2] (Rattus norvegicus, 100 μM) was below 0%. The viability at 250 µM in assay [2] (Rattus norvegicus) was below 0%.

`[O-]/[N+](=C\c1cc2cc(Cl)ccc2nc1Cl)Cc1ccccc1` [Compound 26, (Z)—N-Benzyl-1-(2,6-dichloroquinolin-3-yl)methanimine oxide] returned a viability at 1 µM in assay [2] (Rattus norvegicus, 1 μM) of 41.72 ± 0.3%. The compound further returned a viability at 10 µM in assay [2] (Rattus norvegicus, 10 μM) of 37.7 ± 0.52%. In assay [2] (Rattus norvegicus, 100 μM), this compound registered a viability at 100 µM below 0%. Further, the viability at 250 µM in assay [2] (Rattus norvegicus) is 0.35 ± 0.02%.

In assay [2] (Rattus norvegicus, 1 μM), `COc1ccc2cc(/C=[N+](\[O-])Cc3ccccc3)c(Cl)nc2c1` [Compound 27, (Z)—N-Benzyl-1-(2-chloro-7-methoxyquinolin-3-yl)methanimine oxide] displayed a viability at 1 µM of 26.6 ± 0.37%. Besides, the viability at 10 µM in assay [2] (Rattus norvegicus, 10 μM) is 28 ± 1.15%. This compound also registered a viability at 100 µM in assay [2] (Rattus norvegicus, 100 μM) of 19.4 ± 1.51%.

`COc1ccc(OC)c2nc(Cl)c(/C=[N+](\[O-])Cc3ccccc3)cc12` [Compound 28, (Z)—N-Benzyl-1-(2-chloro-5,8-dimethoxyquinolin-3-yl)methanimine oxide] registered a viability at 1 µM in assay [2] (Rattus norvegicus, 1 μM) of 35.1 ± 0.84%. In assay [2] (Rattus norvegicus, 10 μM), this compound displayed a viability at 10 µM of 38.6 ± 0.55%. In assay [2] (Rattus norvegicus, 100 μM), this compound displayed a viability at 100 µM of 44.27 ± 0.39%.

`CC(C)(C)/[N+]([O-])=C/c1cc2ccccc2n2nnnc12` [Compound 31, (Z)—N-tert-Butyl-1-(tetrazolo[1,5-a]quinolin-4-yl)methanimine oxide]: in assay [2] (Rattus norvegicus, 1 μM), the viability at 1 µM was 7.64 ± 0.14%. Also, in assay [2] (Rattus norvegicus, 10 μM), the viability at 10 µM was 9.84 ± 0.65%. Also, the viability at 100 µM in assay [2] (Rattus norvegicus, 100 μM) worked out at 5.83 ± 0.56%.
